Results taken from US7186732B2, “Non-imidazole aryloxyalkylamines” (Ortho-McNeil Pharmaceutical, Inc., priority 2000, dated 2007).

The compounds below were run against T1, human histamine H3 receptor (Homo sapiens, UniProt Q9Y5N1) (assay: [3H]-N-methylhistamine binding to membranes of histamine H3 receptor-expressing SK-N-MC cells). Conditions: not given.
T1 construct: expressed in transfected cells; membranes prepared from cell pellets
Method: Thus in the present invention receptor binding was determined using the human histamine H3 receptor (See Lovenberg et al Mol. Pharmacol. 1999, 1107). Screening using the human receptor is particularly important for the identification of new therapies for the treatment of human disease. Conventional binding assays for example are determined using rat synaptosomes (Garbarg et al J. Pharmacol. Exp. Ther. 1992, 263, 304), rat cortical membranes (West et al Mol. Pharmacol. 1990, 610), and guinea pig brain (Korte et al Biochem. Biophys. Res. Commun. 1990, 978).
Transfection of Cells with Human Histamine Receptor
A 10 cm tissue culture dish with a confluent monolayer of SK-N-MC cells was split two days prior to transfection. Using sterile technique the media was removed and the cells were detached from the dish by the addition of trypsin. One fifth of the cells were then placed onto a new 10 cm dish. Cells were grown in a 37° C. incubator with 5% CO2 in Minimal Essential Media Eagle with 10% Fetal Bovine Serum. After two days cells were approximately 80% confluent. These were removed from the dish with trypsin and pelleted in a clinical centrifuge. The pellet was then re-suspended in 400 μL complete media and transferred to an electroporation cuvette with a 0.4 cm gap between the electrodes (Bio-Rad #165–2088). One microgram of supercoiled H3 receptor cDNA was added to the cells and mixed. The voltage for the electroporation was set at 0.25 kV, the capacitance was set at 960 μF. After electroporation the cells were diluted into 10 mL complete media and plated onto four 10 cm dishes. Because of the variability in the efficiency of electroporation, four different concentrations of cells were plated. The ratios used were; 1:20, 1:10, 1:5, with the remainder of the cells being added to the fourth dish. The cells were allowed to recover for 24 hours before adding the selection media (complete media with 600 μg/mL G418). After 10 days dishes were analyzed for surviving colonies of cells. Dishes with well isolated colonies were used. Cells from individual colonies were isolated and tested. SK-N-MC cells were used because they give efficient coupling for inhibition of adenylate cyclase. The clones that gave the most robust inhibition of adenylate cyclase in response to histamine were used for further study.
[^3H]-N-methylhistamine Binding
Cell pellets from histamine H3 receptor-expressing SK-N-MC cells were homogenized in 20 mM TrisHCI/0.5 mM EDTA. Supernatants from a 800 g spin were collected, recentrifuged at 30,000 g for 30 minutes. Pellets were re-homogenized in 50 mM Tris/5 mM EDTA (pH 7.4). Membranes were incubated with 0.8 nM [^3H]-N-methylhistamine plus/minus test compounds for 45 min at 25° C. and harvested by rapid filtration over GF/C glass fiber filters (pretreated with 0.3% polyethylenimine) followed by four washes with ice cold buffer. Filters were dried, added to 4 mL scintillation cocktail and then counted on a liquid scintillation counter. Non-specific binding was defined with 10 μM histamine. The pKi values were calculated based on a Kd of 800 pM and a ligand concentration ([L]) of 800 pM according to the formula: Ki=(IC50)/(1+([L]/(Kd))

T1 sequence (Q9Y5N1 whole entry): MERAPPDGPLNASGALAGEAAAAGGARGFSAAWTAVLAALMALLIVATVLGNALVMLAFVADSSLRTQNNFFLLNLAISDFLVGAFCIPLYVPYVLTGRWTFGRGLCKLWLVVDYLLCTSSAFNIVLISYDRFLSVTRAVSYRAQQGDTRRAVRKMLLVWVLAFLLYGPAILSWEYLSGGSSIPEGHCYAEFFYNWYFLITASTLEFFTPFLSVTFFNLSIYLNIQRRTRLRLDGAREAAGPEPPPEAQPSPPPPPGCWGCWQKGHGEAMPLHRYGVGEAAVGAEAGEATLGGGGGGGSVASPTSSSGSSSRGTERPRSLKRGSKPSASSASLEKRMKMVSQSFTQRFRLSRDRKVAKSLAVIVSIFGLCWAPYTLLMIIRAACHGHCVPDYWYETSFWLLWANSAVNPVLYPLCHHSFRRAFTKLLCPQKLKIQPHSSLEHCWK

Row | SMILES | Ki [nM]
1 | OC1CCN(Cc2ccc(OCCCN3CCCCC3)cc2)CC1 [Example 89, 1-[4-(3-Piperidin-1-yl-propoxy)-benzyl]-piperidin-4-ol] | 0.6

Same assay, conditions: 0.8 nM [3H]-N-methylhistamine, 45 min at 25° C., SK-N-MC cell membranes; Ki=(IC50)/(1+([L]/(Kd)); read-out: Ki

Row | SMILES | Ki [nM]
2 | c1ccc(NCc2ccccc2OCCCN2CCCCC2)nc1 [Example 65, [2-(3-Piperidin-1-yl-propoxy)-benzyl]-pyridin-2-yl-amine] | 100
3 | Clc1ccc(NCc2ccccc2OCCCN2CCCCC2)cc1 [Example 67, (4-Chloro-phenyl)-[2-(3-piperidin-1-yl-propoxy)-benzyl]-amine] | 1500
4 | Clc1ccc(NCc2cccc(OCCCN3CCCCC3)c2)cc1 [Example 68, (4-Chloro-phenyl)-[3-(3-piperidin-1-yl-propoxy)-benzyl]-amine] | 89
5 | C(=C1CCN(Cc2ccccc2OCCCN2CCCCC2)CC1)c1ccccc1 [Example 70, 1-{3-[2-(4-Benzylidene-piperidin-1-ylmethyl)-phenoxy]-propyl}-piperidine] | 380
6 | CCN(CC)CCOc1ccc(CN2CCCCC2)cc1 [Example 81, Diethyl-[2-(4-piperidin-1-ylmethyl-phenoxy)-ethyl]-amine] | 140
7 | Clc1ccc(NCc2ccc(OCCCN3CCCCC3)cc2)cc1 [Example 85, (4-Chloro-phenyl)-[4-(3-piperidin-1-yl-propoxy)-benzyl]-amine] | 23
8 | OC1(c2ccccc2)CCN(Cc2ccc(OCCCN3CCCCC3)cc2)CC1 [Example 87, 4-Phenyl-1-[4-(3-piperidin-1-yl-propoxy)-benzyl]-piperidin-4-ol] | 1
9 | c1ccc(N2CCN(Cc3ccc(OCCCN4CCCCC4)cc3)CC2)cc1 [Example 91, 1-Phenyl-4-[4-(3-piperidin-1-yl-propoxy)-benzyl]-piperazine] | 1

More lines, now with the values ahead:

Row | Ki [nM] | SMILES
10 | 2 | c1cncc(C2CCCCN2Cc2ccc(OCCCN3CCCCC3)cc2)c1 (stereo not shown) [Example 61, 1-[4-(3-Piperidin-1-yl-propoxy)-benzyl]-1,2,3,4,5,6-hexahydro-[2,3′]bipyridinyl]
11 | 7 | c1ccc(NCc2ccc(OCCCN3CCCCC3)cc2)cc1 [Example 62, Phenyl-[4-(3-piperidin-1-yl-propoxy)-benzyl]-amine]
12 | 8 | c1ccc(NCc2cccc(OCCCN3CCCCC3)c2)nc1 [Example 66, [3-(3-Piperidin-1-yl-propoxy)-benzyl]-pyridin-2-yl-amine]
13 | 3.9 | OCCC1CCCCN1CCCOc1ccc(CN2CCCCC2)cc1 (stereo not shown) [Example 69, 2-{1-[3-(4-Piperidin-1-ylmethyl-phenoxy)-propyl]-piperidin-2-yl}-ethanol]
14 | 1.8 | C(=C1CCN(Cc2cccc(OCCCN3CCCCC3)c2)CC1)c1ccccc1 [Example 71, 1-{3-[3-(4-Benzylidene-piperidin-1-ylmethyl)-phenoxy]-propyl}-piperidine]
15 | 1.3 | C(=C1CCN(Cc2ccc(OCCCN3CCCCC3)cc2)CC1)c1ccccc1 [Example 72, 1-{3-[4-(4-Benzylidene-piperidin-1-ylmethyl)-phenoxy]-propyl}-piperidine]
16 | 1.1 | CC1CCCCN1CCCOc1ccc(CN2CCCCC2)cc1 (stereo not shown) [Example 73, 2-Methyl-1-[3-(4-piperidin-1-ylmethyl-phenoxy)-propyl]-piperidine]
17 | 3 | CN(CCc1ccccc1)Cc1cccc(OCCCN2CCCCC2)c1 [Example 74, Methyl-phenethyl-[3-(3-piperidin-1-yl-propoxy)-benzyl]-amine]
18 | 1.6 | C(=C\c1ccccc1)/CN1CCN(Cc2ccc(OCCCN3CCCCC3)cc2)CC1 [Example 75, 1-(3-Phenyl-allyl)-4-[4-(3-piperidin-1-yl-propoxy)-benzyl]-piperazine]
19 | 1.1 | CN1CCC(N(C)Cc2ccc(OCCCN3CCCCC3)cc2)CC1 [Example 76, Methyl-(1-methyl-piperidin-4-yl)-[4-(3-piperidin-1-yl-propoxy)-benzyl]-amine]
20 | 1 | CN(CCc1ccccn1)Cc1ccc(OCCCN2CCCCC2)cc1 [Example 78, Methyl-[4-(3-piperidin-1-yl-propoxy)-benzyl]-(2-pyridin-2-yl-ethyl)-amine]
21 | 1.3 | CCN(Cc1ccncc1)Cc1ccc(OCCCN2CCCCC2)cc1 [Example 79, Ethyl-[4-(3-piperidin-1-yl-propoxy)-benzyl]-pyridin-4-ylmethyl-amine]
22 | 1 | CN(Cc1ccccc1)Cc1ccc(OCCCN2CCCCC2)cc1 [Example 80, Benzyl-methyl-[4-(3-piperidin-1-yl-propoxy)-benzyl]-amine]
23 | 1.6 | COc1ccc(CCN(C)Cc2ccc(OCCCN3CCCCC3)cc2)cc1OC [Example 82, [2-(3,4-Dimethoxy-phenyl)-ethyl]-methyl-[4-(3-piperidin-1-yl-propoxy)-benzyl]-amine]
24 | 1.7 | CN(CCc1ccccc1)Cc1ccc(OCCCN2CCCCC2)cc1 [Example 83, Methyl-phenethyl-[4-(3-piperidin-1-yl-propoxy)-benzyl]-amine]
25 | 5 | c1ccc(NCc2ccc(OCCCN3CCCCC3)cc2)nc1 [Example 84, [4-(3-Piperidin-1-yl-propoxy)-benzyl]-pyridin-2-yl-amine]
26 | 2 | CC(C)N1CCN(Cc2ccc(OCCCN3CCCCC3)cc2)CC1 [Example 88, 1-Isopropyl-4-[4-(3-piperidin-1-yl-propoxy)-benzyl]-piperazine]
27 | 5.5 | c1ccc(CN(CCCn2cccc2-c2ccc(OCCCN3CCCCC3)cc2)Cc2ccccc2)cc1 [Example 92, Dibenzyl-(3-{2-[4-(3-piperidin-1-yl-propoxy)-phenyl]-pyrrol-1-yl}-propyl)-amine]
28 | 1.3 | c1ccc(CC2CCN(Cc3ccc(OCCCN4CCCCC4)cc3)CC2)cc1 [Example 93, 1-{3-[4-(4-Benzyl-piperidin-1-ylmethyl)-phenoxy]-propyl}-piperidine]
29 | 0.7 | c1cc(OCCCN2CCCCC2)ccc1CN1CCOCC1 [Example 94, 4-[4-(3-Piperidin-1-yl-propoxy)-benzyl]-morpholine]
30 | 1.5 | c1cc(-c2ccc(OCCCN3CCCCC3)cc2)n(CCCN2CCCCC2)c1 [Example 96, 1-(3-{4-[1-(3-Piperidin-1-yl-propyl)-1H-pyrrol-2-yl]-phenoxy}-propyl)-piperidine]

Same assay, conditions: 0.8 nM [3H]-N-methylhistamine, 45 min at 25° C., SK-N-MC cell membranes; […]; read-out: Ki

Row | SMILES | Ki [nM]
31 | c1ccc2c(c1)ncn2C1CCN(Cc2ccc(OCCCN3CCCCC3)cc2)CC1 [Example 60, 1-{1-[4-(3-Piperidin-1-yl-propoxy)-benzyl]-piperidin-4-yl}-1H-benzoimidazole] | 2
32 | Brc1ccc2c(c1)CCN2C1CCN(Cc2ccc(OCCCN3CCCCC3)cc2)CC1 [Example 63, 5-Bromo-1-{1-[4-(3-piperidin-1-yl-propoxy)-benzyl]-piperidin-4-yl}-2,3-dihydro-1H-indole] | 3
33 | c1ccc2c(c1)CCN2C1CCN(Cc2ccc(OCCCN3CCCCC3)cc2)CC1 [Example 64, 1-{1-[4-(3-Piperidin-1-yl-propoxy)-benzyl]-piperidin-4-yl}-2,3-dihydro-1H-indole] | 2
34 | CC(C)N1CCC(O)(c2ccc(OCCCN3CCCCC3)cc2)CC1 [Example 77, 1-Isopropyl-4-[4-(3-piperidin-1-yl-propoxy)-phenyl]-piperidin-4-ol] | 2.9
35 | OC1(c2ccc(Cl)cc2)CCN(Cc2ccc(OCCCN3CCCCC3)cc2)CC1 [Example 86, 4-(4-Chloro-phenyl)-1-[4-(3-piperidin-1-yl-propoxy)-benzyl]-piperidin-4-ol] | 1.8
36 | c1ccc(CN2CCN(Cc3ccc(OCCCN4CCCCC4)cc3)CC2)cc1 [Example 90, 1-Benzyl-4-[4-(3-piperidin-1-yl-propoxy)-benzyl]-piperazine] | 0.9

Same assay, conditions: 0.8 nM [3H]-N-methylhistamine, 45 min at 25° C., SK-N-MC cell membranes; unit given as nm; read-out: Ki

Row | SMILES | Ki [nM]
37 | c1ccc2c(c1)CCCN2Cc1ccc(OCCCN2CCCCC2)cc1 [Example 95, 1-[4-(3-Piperidin-1-yl-propoxy)-benzyl]-1,2,3,4-tetrahydro-quinoline] | 4.8
